Earlier results as cited in US20090214619A1, “IMPLANT FOR INTRAOCULAR DRUG DELIVERY” (THERAKINE LTD., priority 2004, published 2009).

B1: IL-4: pleiotropic cytokine produced by activated T cells, mast cells, and basophiles (protein, UniProt P05112 25-153, looked up)
Interleukin-4: HKCDITLQEIIKTLNSLTEQKTLCTELTVTDIFAASKNTTEKETFCRAATVLRQFYSHHEKDTRCLGATAQQFHRHKQLIRFLKRLDRNLWGLAGLNSCPVKEANQSTLENFLERLKTIMREKYSKCSS

What was measured:
[1] = test system: degenerative diseases such as choroidal neovascularization, macular edema, macular degeneration, branch retinal vein occlusion; conditions: patients with choroidal neovascularization
[2] = test system: HSP induced uveitis; conditions: rats with HSP induced uveitis; decreased from 68% without treatment

Molecule	effect on vision [1]	development of uveitis [2] [%]
Infliximab: chimeric Anti TNF Mab	improve vision	–
B1	–	30.4
